According to PubChem BioAssay (NCI):
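Growth conditions: 96-well plates. Treatment: test compound, 48 hours, 5 concentrations. Analysis: linear interpolation between bracketing concentrations; unreached endpoints set to highest concentration. At the TGI there is no net growth.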

Tests used:
Assay in all cases: growth of human tumour cells (NCI), 48 h
SNB-19 CNS = tested on: SNB-19 CNS
DU-145 prostate = tested on: DU-145 prostate
UACC-62 melanoma = tested on: UACC-62 melanoma
SF-539 CNS = tested on: SF-539 CNS
HCC-2998 colon = tested on: HCC-2998 colon
MDA-MB-435 = tested on: MDA-MB-435
MDA-N = tested on: MDA-N
SK-MEL-28 melanoma = tested on: SK-MEL-28 melanoma
NCI-H226 lung = tested on: NCI-H226 lung
HOP-92 NSCLC = tested on: HOP-92 NSCLC
SK-MEL-5 melanoma = tested on: SK-MEL-5 melanoma
SF-268 CNS = tested on: SF-268 CNS
OVCAR-5 ovarian = tested on: OVCAR-5 ovarian
IGROV1 ovarian = tested on: IGROV1 ovarian
SK-MEL-2 melanoma = tested on: SK-MEL-2 melanoma
NCI-H23 lung = tested on: NCI-H23 lung
RXF 393 renal = tested on: RXF 393 renal
CCRF-CEM leukemia = tested on: CCRF-CEM leukemia
OVCAR-3 ovarian = tested on: OVCAR-3 ovarian
T-47D breast = tested on: T-47D breast

Row | Structure (SMILES) | TGI (SNB-19 CNS) [µM] | TGI (DU-145 prostate) [µM] | TGI (UACC-62 melanoma) [µM] | TGI (SF-539 CNS) [µM] | TGI (HCC-2998 colon) [µM] | TGI (MDA-MB-435) [µM] | TGI (MDA-N) [µM] | TGI (SK-MEL-28 melanoma) [µM] | TGI (NCI-H226 lung) [µM] | TGI (HOP-92 NSCLC) [µM] | TGI (SK-MEL-5 melanoma) [µM] | TGI (SF-268 CNS) [µM] | TGI (OVCAR-5 ovarian) [µM] | TGI (IGROV1 ovarian) [µM] | TGI (SK-MEL-2 melanoma) [µM] | TGI (NCI-H23 lung) [µM] | TGI (RXF 393 renal) [µM] | TGI (CCRF-CEM leukemia) [µM] | TGI (OVCAR-3 ovarian) [µM] | TGI (T-47D breast) [µM]
1 | COC(=O)c1ccc(NCC2=CC(=O)C=CC2=O)cc1 | 28.2 | 28.8 | 29 | 24.5 | 38.8 | 24.3 | 24.2 | 30.2 | 37.2 | 10.5 | 32.5 | 28.8 | 32.3 | 34.1 | 37.4 | 29.8 |  |  |  | 
2 | O=C1OC(CS(=O)(=O)c2ccccc2)CC1O (stereo unspecified) | > 100 | > 100 | > 100 | > 100 | > 100 | > 100 | > 100 | > 100 | > 100 |  | > 100 | > 100 | > 100 | > 100 | > 100 | > 100 | > 100 | > 100 | > 100 | 
3 | O=C1C=C2CC[C@H]3[C@@H]4CC[C@H](OC(=O)c5cccc6cc7ccccc7nc56)[C@H]4CC[C@@H]3[C@H]2CC1 | > 100 | > 100 | > 100 | > 100 |  | > 100 | > 100 | > 100 | > 100 |  | > 100 | > 100 | > 100 | > 100 | > 100 | > 100 |  | > 100 | > 100 | 
4 | Fc1ccc2c3c([nH]c2c1)CCNC3 | > 100 | > 100 | > 100 | > 100 | > 100 | > 100 |  | > 100 | > 100 | 85.9 | > 100 | > 100 | > 100 | > 100 |  | > 100 | > 100 | > 100 |  | > 100
5 | CCOC(=O)c1cc(C#N)[nH]c1-c1ccsc1 | > 100 | 58.8 | > 100 | 77.1 | > 100 | 51.9 | > 100 | > 100 | > 100 | > 100 | > 100 | 57.1 | > 100 | > 100 | > 100 | > 100 | 51.3 | 69.3 | 96 | 
6 | CN1N=C2c3ccccc3CC[C@H]2C1c1cccc(O)c1 (stereo partly specified) | > 100 |  | > 100 | > 100 | > 100 |  |  | > 100 | > 100 | > 100 |  | > 100 | > 100 | > 100 | > 100 | > 100 | > 100 | > 100 | > 100 | 
7 | Cn1c(=O)n2n(c1=O)[C@@H](c1ccccc1)[C@H]2c1ccccc1 | > 100 |  | > 100 | > 100 | > 100 |  |  | > 100 | > 100 | > 100 | > 100 |  | > 100 | > 100 | > 100 | > 100 | > 100 | > 100 | > 100 | 
